Assay results reported in PMC10620772, “Design, synthesis, and biological evaluation of new pyrimidine-5-carbonitrile derivatives as novel anti-cancer, dual EGFR^WT/COX-2 inhibitors with docking studies” (RSC Advances, 2023).

Assays:
Experiment in all cases: NCI60 antitumor screening
Assay type in all cases: cell-based, human
NCI-H460 = test system: NCI-H460
OVCAR-4 = test system: OVCAR-4
SF-539 = test system: SF-539
MALME-3M = test system: MALME-3M
UACC-62 = test system: UACC-62
A498 = test system: A498
TK-10 = test system: TK-10
A549/ATCC = test system: A549/ATCC
NCI/ADR-RES = test system: NCI/ADR-RES
MDA-MB-435 = test system: MDA-MB-435
CCRF-CEM = test system: CCRF-CEM
SNB-75 = settings: Homo sapiens; 10 μM single dose; SNB-75 (CNS cancer); read-out: growth inhibition percent (GI%)
OVCAR-8 = test system: OVCAR-8
RXF 393 = test system: RXF 393
CAKI-1 = test system: CAKI-1
786–0 = test system: 786–0
LOX IMVI = test system: LOX IMVI
MDA-MB-468 = test system: MDA-MB-468
SF-268 = test system: SF-268
[1] = Homo sapiens, OVCAR-4, five-dose
[2] = Homo sapiens, SF-539, five-dose
[3] = Homo sapiens, MDA-MB-468, five-dose

N#Cc1c(-c2ccc(F)cc2)nc(SCc2ccccc2)nc1N1CCNCC1 [4e, 2-(Benzylthio)-4-(4-fluorophenyl)-6-(piperazin-1-yl) pyrimidine-5-carbonitrile]
GI50 (NCI-H460; Homo sapiens, NCI-H460, five-dose): 9.2 µM
CC50 (NCI-H460; Homo sapiens, NCI-H460, five-dose, read-out: LC50 (the source's name)): 53.9 µM
inhibition at 10 µM (NCI-H460; Homo sapiens, 10 μM single dose, NCI-H460 (non-small cell lung cancer), read-out: growth inhibition percent (GI%)): > 100%
TGI (NCI-H460; five-dose): 22.90 µM
GI50 (OVCAR-4; [1]): 15.7 µM
LC50 (lethal concentration, 50% cell kill) (OVCAR-4; [1]): 74.7 µM
inhibition at 10 µM (OVCAR-4; Homo sapiens, 10 μM single dose, OVCAR-4 (ovarian cancer), read-out: growth inhibition percent (GI%)): > 100%
TGI (OVCAR-4; five-dose): 34.20 µM
GI50 (SF-539; [2]): 15.7 µM
LC50 (SF-539; [2]): 54.9 µM
inhibition at 10 µM (SF-539; Homo sapiens, 10 μM single dose, SF-539 (CNS cancer), read-out: growth inhibition percent (GI%)): > 100%
TGI (SF-539; five-dose): 29.40 µM
GI50 (MALME-3M; Homo sapiens, Malme-3M, five-dose): 14.1 µM
CC50 (MALME-3M; Homo sapiens, Malme-3M, five-dose, read-out: LC50 (the source's name)): 56.3 µM
inhibition at 10 µM (MALME-3M; Homo sapiens, 10 μM single dose, MALME-3M (melanoma), read-out: growth inhibition percent (GI%)): > 100%
TGI (MALME-3M; five-dose): 28.20 µM
GI50 (UACC-62; Homo sapiens, UACC-62, five-dose): 14.4 µM
CC50 (UACC-62; Homo sapiens, UACC-62, five-dose, read-out: LC50 (the source's name)): 55 µM
inhibition at 10 µM (UACC-62; Homo sapiens, 10 μM single dose, UACC-62 (melanoma), read-out: growth inhibition percent (GI%)): > 100%
TGI (UACC-62; five-dose): 28.20 µM
GI50 (A498; Homo sapiens, A498, five-dose): 13.1 µM
LC50 (A498; Homo sapiens, A498, five-dose): 56.9 µM
inhibition at 10 µM (A498; Homo sapiens, 10 μM single dose, A498 (renal cancer), read-out: growth inhibition percent (GI%)): > 100%
TGI (A498; five-dose): 27.30 µM
GI50 (TK-10; Homo sapiens, TK-10, five-dose): 14.5 µM
LC50 (TK-10; Homo sapiens, TK-10, five-dose): 55.5 µM
inhibition at 10 µM (TK-10; Homo sapiens, 10 μM single dose, TK-10 (renal cancer), read-out: growth inhibition percent (GI%)): > 100%
TGI (TK-10; five-dose): 28.40 µM
GI50 (A549/ATCC; Homo sapiens, A549, five-dose): 8.1 µM
LC50 (concentration killing 50% of cells) (A549/ATCC; Homo sapiens, A549, five-dose): 50.2 µM
inhibition at 10 µM (A549/ATCC; Homo sapiens, 10 μM single dose, A549/ATCC (non-small cell lung cancer), read-out: growth inhibition percent (GI%)): > 100%
TGI (A549/ATCC; five-dose): 21.50 µM
GI50 (NCI/ADR-RES; Homo sapiens, NCI/ADR-RES, five-dose): 11.7 µM
CC50 (NCI/ADR-RES; Homo sapiens, NCI/ADR-RES, five-dose, read-out: LC50 (the source's name)): 64.4 µM
inhibition at 10 µM (NCI/ADR-RES; Homo sapiens, 10 μM single dose, NCI/ADR-RES (ovarian cancer), read-out: growth inhibition percent (GI%)): > 100%
TGI (NCI/ADR-RES; five-dose): 27.40 µM
GI50 (MDA-MB-435; Homo sapiens, MDA-MB-435, five-dose): 16.9 µM
CC50 (MDA-MB-435; Homo sapiens, MDA-MB-435, five-dose, read-out: LC50 (the source's name)): 58.8 µM
inhibition at 10 µM (MDA-MB-435; Homo sapiens, 10 μM single dose, MDA-MB-435 (melanoma), read-out: growth inhibition percent (GI%)): > 100%
TGI (MDA-MB-435; five-dose): 31.50 µM
GI50 (CCRF-CEM; Homo sapiens, CCRF-CEM, five-dose): 13.9 µM
CC50 (CCRF-CEM; Homo sapiens, CCRF-CEM, five-dose, read-out: LC50 (the source's name)): 69 µM
inhibition at 10 µM (CCRF-CEM; Homo sapiens, 10 μM single dose, CCRF-CEM (leukaemia), read-out: growth inhibition percent (GI%)): > 100%
TGI (CCRF-CEM; five-dose): 31.00 µM
inhibition at 10 µM (SNB-75): > 100%
GI50 (OVCAR-8; Homo sapiens, OVCAR-8, five-dose): 6.21 µM
CC50 (OVCAR-8; Homo sapiens, OVCAR-8, five-dose, read-out: LC50 (the source's name)): 59.1 µM
inhibition at 10 µM (OVCAR-8; Homo sapiens, 10 μM single dose, OVCAR-8 (ovarian cancer), read-out: growth inhibition percent (GI%)): > 100%
TGI (OVCAR-8; five-dose): 21.80 µM
GI50 (RXF 393; Homo sapiens, RXF 393, five-dose): 3.14 µM
CC50 (RXF 393; Homo sapiens, RXF 393, five-dose, read-out: LC50 (the source's name)): 44.2 µM
inhibition at 10 µM (RXF 393; Homo sapiens, 10 μM single dose, RXF 393 (renal cancer), read-out: growth inhibition percent (GI%)): > 100%
TGI (RXF 393; five-dose): 14.80 µM
GI50 (CAKI-1; Homo sapiens, CAKI-1, five-dose): 16 µM
CC50 (CAKI-1; Homo sapiens, CAKI-1, five-dose, read-out: LC50 (the source's name)): 55.1 µM
inhibition at 10 µM (CAKI-1; Homo sapiens, 10 μM single dose, CAKI-1 (renal cancer), read-out: growth inhibition percent (GI%)): > 100%
TGI (CAKI-1; five-dose): 29.70 µM
GI50 (786–0; Homo sapiens, 786-0, five-dose): 11 µM
LC50 (concentration killing 50% of tumour cells) (786–0; Homo sapiens, 786-0, five-dose): 58.9 µM
inhibition at 10 µM (786–0; Homo sapiens, 10 μM single dose, 786–0 (renal cancer), read-out: growth inhibition percent (GI%)): > 100%
TGI (786–0; five-dose): 25.40 µM
GI50 (LOX IMVI; Homo sapiens, LOX IMVI, five-dose): 1.71 µM
CC50 (LOX IMVI; Homo sapiens, LOX IMVI, five-dose, read-out: LC50 (the source's name)): 6.48 µM
inhibition at 10 µM (LOX IMVI; Homo sapiens, 10 μM single dose, LOX IMVI (melanoma), read-out: growth inhibition percent (GI%)): > 100%
TGI (LOX IMVI; five-dose): 3.33 µM
GI50 (MDA-MB-468; [3]): 6.71 µM
LC50 (MDA-MB-468; [3]): 51.6 µM
inhibition at 10 µM (MDA-MB-468; Homo sapiens, 10 μM single dose, MDA-MB-468 (breast cancer), read-out: growth inhibition percent (GI%)): > 100%
TGI (MDA-MB-468; five-dose): 21.30 µM
GI50 (SF-268; Homo sapiens, SF-268, five-dose): 12.9 µM
CC50 (SF-268; Homo sapiens, SF-268, five-dose, read-out: LC50 (the source's name)): 65.4 µM
inhibition at 10 µM (SF-268; Homo sapiens, 10 μM single dose, SF-268 (CNS cancer), read-out: growth inhibition percent (GI%)): > 100%
TGI (SF-268; five-dose): 29.10 µM
